Data set [1] in a line: Tolerability of daily i.p. injections with necropsy. The class given is in vivo, wild-type mice. Particulars: ≦50 mg/kg i.p. daily, 16 days.
Data set [2] has as its target T1, human APP (Homo sapiens, UniProt P05067).
T1 construct: expressed in transfected cells; host or cells: COS7 cells
The experiment in a line: Cell surface biotinylation, COS7 cells expressing APP. The class given is cell-based. The conditions noted are these: 5 μM, 24 h. The procedure:
Cell lines. COS 7 cells (Lombardi Co-Resources Cancer Center, Georgetown University) were maintained in Opti-MEMO (Invitrogen) with 10% fetal bovine serum (FBS, Life Technologies, Inc.) in a 5% CO2 incubator. The cells were transiently transfected with 0.5-1 μg of plasmid in FuGENE® 6 (Roche) according to the manufacturer's protocol and cultured 24 hr in DMEM containing 10% FBS. For co-transfections, cells were similarly transfected with 0.5-1 μg of each plasmid in FUGENE® 6 (Roche) and cultured 24 hr in DMEM with 10% FBS.
Cell surface biotinylation. COS7 cells were transiently transfected with APP for 24 hr in OPTI-MEM® containing 10% fetal bovine serum, and then treated with BTA-EG4 or control for 24 hr. After 24 hr, surface proteins were biotin labeled, immobilized with NeutrAvidin™ Gel and incubated 1 h with SDS-PAGE sample buffer, including 50 mM DTT, as described previously (Minami et al., 2010). Eluates were analyzed for APP by immunoblotting.
It is well known that the majority of a-secretase activity occurs on the cell surface, while β- and γ-secretase activity occurs primarily in the early and late endosomes (Huse et al., 2000; Reiss et al., 2006). Thus, if APP is present at the cell's surface, it is preferentially cleaved by α-secretase, resulting in decreased Aβ production. Therefore, we examined whether BTA-EG4 regulates cell surface expression of APP. […]

Data set [3] deals with Aβ. Briefly: Aβ ELISA, conditioned media of primary cortical neurons. The class given is cell-based. Particulars: 1 or 5 μM, 24 h, vs control (10% DMSO). The procedure:
Aβ ELISA. Mouse brains were homogenized in tissue homogenization buffer containing 250 mM sucrose, 20 mM Tris base, protease, and phosphatase inhibitors. To measure soluble Aβ, DEA extraction was performed. Crude 10% homogenate was mixed with an equal volume of 0.4% diethylamine (DEA), sonicated, and ultracentrifuged for 1 hr at 100,000×g. The supernatant was collected and neutralized with 10% 0.5 M Tris, pH 6.8. Sensitive and specific ELISAs to rodent Aβ1-40 was purchased from IBL Transatlantic (Toronto, Canada) and conducted per the manufacturer's protocol.
To test whether BTA-EG4 alters Aβ production in vitro, primary cortical neurons were treated with BTA-EG4 (1 or 5 μM) or control (10% DMSO), and Aβ levels were measured using ELISA. […] We then examined whether BTA-EG4 can alter Aβ levels in vivo by injecting wild-type mice daily for 2 weeks with BTA-EG4 (15 or 30 mg/kg, 10% DMSO in saline, i.p.). […] Furthermore, BTA-EG4 altered APP processing in vivo, as monitored by increased sAPPα (α-secretase cleavage product) and decreased sAPPβ (β-secretase cleavage product) levels in BTA-EG4 injected wild-type mice (30 mg/kg, i.p) compared to control-injected mice (FIGS. 1E, 1F).

In data set [4] the test system is Ras. Briefly: GST-Raf1-RBD pulldown of active Ras, APP knock-out mice. The class given is in vivo. The procedure:
(§1) GST-pull-down assay. To measure levels of active Ras, brain lysate homogenized with Ral buffer (25 mM Tris-HCl, pH 7.4, 250 mM NaCl, 0.5% NP40, 1.25 mM MgCl2, and 5% glycerol) from APP transgenic, APP knockout, or wild-type mice was incubated with GST-Raf-RBD purified protein coupled with GLUTATHIONE SEPHAROSE™ (Amersham) overnight at 4° C. After 24 hours, pellets were washed with Ral buffer and western blotting was conducted with anti-Ras.
Next, we investigated whether BTA-EG4 can alter Ras activity in APP KO mice by injecting control or BTA-EG4 for 2 weeks. […] Further, we examined the effect of BTA-EG4 on downstream Ras signaling in the presence or absence of APP. For this experiment, primary hippocampal neurons were transfected with GFP and APP shRNA or APP, treated with BTA-EG4 or control, and then immunostained against p-ERK or p-CREB.

Data set [5] relates to Ras. The experiment in a line: GST-Raf1-RBD pulldown of active Ras, brain lysates of wild-type mice. The class given is in vivo. Particulars: 30 mg/kg daily for 2 weeks. On the procedure:
as §1
We next investigated the molecular mechanism by which BTA-EG4 may alter dendritic spine formation. Ras, a small GTPase, is involved in dendritic spine formation and synaptic delivery of AMPA receptors (Zhu et al., 2002; Lee et al., 2011). Moreover, abnormal Ras signaling is associated with neurodegenerative disease, causing cognitive impairments and learning deficits (Stornetta and Zhu, 2011). Thus, we initially investigated the effect of BTA-EG4 on Ras signaling by treating primary hippocampal neurons with BTA-EG4 (5 μM) or control for 24 hrs. […] Further, levels of active Ras were elevated following BTA-EG4 treatment (5 μM) in primary cortical neurons (FIG. 7C) and following BTA-EG4 treatment (30 mg/kg) in wild-type mice (FIG. 7D). We also examined whether BTA-EG4 can alter the activity of downstream Ras signaling proteins, including p-ERK and p-CREB.

T1 sequence (P05067 18-770): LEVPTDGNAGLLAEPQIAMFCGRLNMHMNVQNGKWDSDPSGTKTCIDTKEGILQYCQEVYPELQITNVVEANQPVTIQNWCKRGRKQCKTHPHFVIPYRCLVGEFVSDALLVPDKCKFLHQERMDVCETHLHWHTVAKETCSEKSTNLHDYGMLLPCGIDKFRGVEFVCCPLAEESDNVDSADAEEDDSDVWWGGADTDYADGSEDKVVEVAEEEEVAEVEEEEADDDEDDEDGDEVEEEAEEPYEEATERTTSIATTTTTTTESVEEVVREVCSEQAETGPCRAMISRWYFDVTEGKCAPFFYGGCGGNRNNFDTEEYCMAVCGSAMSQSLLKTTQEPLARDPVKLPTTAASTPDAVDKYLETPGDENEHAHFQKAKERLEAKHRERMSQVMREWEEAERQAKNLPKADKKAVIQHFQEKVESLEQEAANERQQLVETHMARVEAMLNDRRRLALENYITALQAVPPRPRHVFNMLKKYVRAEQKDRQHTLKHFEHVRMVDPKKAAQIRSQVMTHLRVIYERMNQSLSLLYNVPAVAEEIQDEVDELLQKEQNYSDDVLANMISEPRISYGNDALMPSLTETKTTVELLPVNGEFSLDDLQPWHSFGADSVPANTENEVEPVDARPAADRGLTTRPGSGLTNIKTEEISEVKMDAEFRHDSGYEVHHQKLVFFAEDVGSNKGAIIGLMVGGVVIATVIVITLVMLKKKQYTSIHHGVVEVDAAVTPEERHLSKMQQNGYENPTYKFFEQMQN

Turning to BTA-EG4, in data set [1], the necropsy findings entry was “no adverse effects on major organs” and the “tolerability of daily injections” value is “well tolerated”. Also, the “cell surface APP” value in data set [2] was “increased”. Besides, the Aβ protein levels entry in data set [3] was “significantly decreased”. The “amount of active Ras” value in data set [4] (30 mg/kg i.p., 2 weeks, CTRL (C)=100±1.22%, n=5) turned out to be 03.2±1.26%. For the same substance, in data set [4] (injected for 2 weeks), the Ras activity result is recorded as “did not have altered”. Moreover, the “levels of active Ras” value in data set [5] is reported as “elevated”.

The values above are taken from patent US20160000762A1, “IMPROVING COGNITIVE FUNCTION” (THE REGENTS OF THE UNIVERSITY OF CALIFORNIA, priority 2013, published 2016).
